Measurements: paper PMC9138994 (Biomolecules, 2022)
“And” between values parts separate entries of the source, which are not always exact repeats. Identical values can stand only once. Marks after values point to notes of the source that are not given here.

Columns and labels:
D3R = test system: D3R; set-up: method as in earlier work; conditions: ref 19 (Vanover et al.); cited from earlier work
hH4R = target: T1, hH4R (Homo sapiens, UniProt P04899+Q9H3N8); assay: [3H]-histamine competition binding assay at histamine H4R (Sf9 membranes); conditions: Sf9 cell membranes expressing human H4R with Gαi2 and Gβ1γ2, read-out: Ki (n), H4R
T1 construct: expressed in transfected cells; host or cells: Sf9 insect cells
Description: To determine the human H4R affinity, compounds and reference structures were examined in a [^3H]-histamine dihydrochloride competition binding assay. Cell culture and membrane preparation of Sf9 cells co-expressing hH4R-Gαi2 fusion protein with Gβ1γ2 was prepared as described by Schneider and co-workers.
The competition binding assay has been performed as described previously by Sander, Kottke, and Schwed from the Stark Lab. Cell membranes were sedimented by 3 min centrifugation at 25 °C and […] and were resuspended in binding buffer. Competition binding experiments were carried out by incubating the membranes (40 µg/0.2 mL binding buffer) and [^3H]-histamine dihydrochloride (10 nM) with test compounds for 60 min at r.t. Assays were run in triplicates with four to seven appropriate concentrations between 0.1 nM and 100 µM for the test compound. Nonspecific binding was determined in the presence of 100 µM JNJ7777120. The following steps were performed as described before.

hH1R = target: T2, hH1R (Homo sapiens, UniProt P35367); assay: [3H]-pyrilamine displacement assay at histamine H1R (CHO-K1 cells); assay type: binding; conditions: CHO-K1 cells stably expressing human H1R; [3H]-pyrilamin; read-out: Ki (n), H1R
T2 construct: expressed in transfected cells; host or cells: CHO-K1
Description: To determine the human H1R affinity, compounds and reference substances were tested in a [^3H]-pyrilamine displacement assay. The assay was conducted with membrane preparations of CHO-K1 cells stably expressing hH1R. Transfection, cell culture, and membrane preparation were described in detail by Smit and colleagues. For the competition binding assay, membrane fractions (40 μg/well in a final volume of 0.2 mL binding buffer) were incubated with [^3H]-pyrilamine (1 nM) and the test compounds in different concentrations for 120 min at r.t. under shaking. The experimental assays were carried out in triplicate with at least six appropriate concentrations between 0.1 nM and 100 μM for the test compounds. Nonspecific binding was evaluated in the presence of the standard H1R antagonist chlorpheniramine hydrogen maleate at a concentration of 10 µM. The following steps were performed as described before.

[1] = target: T3, human serotonin 5-HT2A receptor (Homo sapiens, UniProt P28223); assay: Radioligand displacement assay at 5-HT2A ([3H]-ketanserin, CHO-K1 cells); assay type: binding; conditions: CHO-K1 cells expressing human 5-HT2A, read-out: Ki ± SD (n), 5-HT2A
T3 construct: host or cells: CHO-K1

human D2L = target: T4, human D2L (Homo sapiens, UniProt P14416); assay: Radioligand displacement assay at dopamine D2R ([3H]-raclopride, HEK293 cells); assay type: binding; conditions: HEK293 cells stably expressing human D2R, read-out: Ki ± SD (n), D2R
T4 construct: expressed in transfected cells; host or cells: HEK293

[2] = target: T5, human histamine H3 receptor (Homo sapiens, UniProt Q9Y5N1); assay: Radioligand displacement assay at histamine H3 receptor ([3H]-Nα-methylhistamine, HEK293 membranes); assay type: binding; conditions: HEK293 cells stably expressing human H3R, read-out: Ki [CI 95%] (n), H3R
T5 construct: expressed in transfected cells; host or cells: HEK293
Description: Radioligand displacement assays were performed as described previously. HEK293 cells stably expressing the human histamine H3 receptor [37] were grown in Dulbecco’s modified Eagle’s medium, supplemented with 2 mM glutamine, 10 mM HEPES, 10% fetal bovine serum, and 10 μL/mL penicillin/streptomycin in an atmosphere of 5% CO2 at 37 °C. Cells were grown to confluence. The medium was removed, and cells were collected in 15 mL ice-cold phosphate-buffered saline (PBS) (140 mM NaCl, 3 mM KCl, 1.5 mM KH2PO4, 8 mM Na2HPO4, pH 7.4). The cell suspension was centrifuged two times at 3000× g for 10 min with subsequent aspiration in 20 mL of PBS buffer at 4 °C. […]
Competition binding experiments were carried out as follows: membranes (20 μg/well in a final volume of 0.2 mL binding buffer) were incubated with [^3H]-N^α-methylhistamine (2 nM), purchased from PerkinElmer (Waltham, MA, USA), and different concentrations of the respective test ligand. […] Non-specific binding was determined in the presence of the selectively acting histamine H3 receptor inverse agonist/antagonist pitolisant (10 μM). […] Liquid scintillation counting using a PerkinElmer MicroBeta Trilux scintillation counter was used to determine the amount of radioactivity collected on the filter used in the current experiment. […]

hD1R = target: T6, hD1R (Homo sapiens, UniProt P21728); assay: Radioligand displacement assay at dopamine D1R ([3H]-SCH23390, HEK293 cells); assay type: binding; conditions: HEK293 cells stably expressing human D1R, read-out: Ki (n), D1R
T6 construct: expressed in transfected cells; host or cells: HEK293
Description: hD1R affinity was determined according to the procedure of hD3R [43]. Membrane preparations of HEK293 cells stably expressing the hD1R were used with 20 µg/well. [^3H]-SCH23390 was used as radioligand in a concentration of 0.3 nM. Nonspecific binding was determined in the presence of 100 µM fluphenazine. The following steps were performed as describedbefore.

hD3R = target: T7, hD3R (Homo sapiens, UniProt P35462); assay: Radioligand displacement assay at dopamine D3R ([3H]-spiperone, CHO-K1 cells); assay type: binding; conditions: CHO-K1 cells stably expressing human D3R, read-out: Ki (n), D3R
T7 construct: expressed in transfected cells; host or cells: CHO-K1
Description: To determine the human D3R affinity, compounds and reference substances were tested in a [^3H]-spiperone competition binding assay as described by Bautista-Aguilera et al.. The assay was conducted with membrane preparations of CHO-K1 cells stably expressing hD3R. Membrane fractions (20 μg/well in a final volume of 0.2 mL binding buffer) were incubated with [^3H]-spiperone (0.2 nM) and the test compounds for 120 min at r.t. under shaking. Assays were run in triplicates with at least six appropriate concentrations between 0.1 nM and 100 µM for the test compound. Nonspecific binding was determined in the presence of 10 µM haloperidol.

T5 sequence (Q9Y5N1 whole entry): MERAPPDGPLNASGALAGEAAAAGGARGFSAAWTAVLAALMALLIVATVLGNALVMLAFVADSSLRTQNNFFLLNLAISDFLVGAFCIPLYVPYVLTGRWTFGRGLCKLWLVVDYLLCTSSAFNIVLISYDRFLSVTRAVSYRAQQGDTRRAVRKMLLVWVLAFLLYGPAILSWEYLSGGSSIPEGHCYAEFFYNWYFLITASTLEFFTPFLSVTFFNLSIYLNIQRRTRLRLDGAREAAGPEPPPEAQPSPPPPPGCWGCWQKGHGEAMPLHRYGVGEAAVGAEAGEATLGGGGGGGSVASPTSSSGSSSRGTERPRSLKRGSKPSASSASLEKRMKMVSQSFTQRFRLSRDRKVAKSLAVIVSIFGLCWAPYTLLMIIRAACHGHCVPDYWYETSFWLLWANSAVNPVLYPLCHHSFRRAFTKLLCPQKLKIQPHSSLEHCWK
T7 sequence (P35462 whole entry): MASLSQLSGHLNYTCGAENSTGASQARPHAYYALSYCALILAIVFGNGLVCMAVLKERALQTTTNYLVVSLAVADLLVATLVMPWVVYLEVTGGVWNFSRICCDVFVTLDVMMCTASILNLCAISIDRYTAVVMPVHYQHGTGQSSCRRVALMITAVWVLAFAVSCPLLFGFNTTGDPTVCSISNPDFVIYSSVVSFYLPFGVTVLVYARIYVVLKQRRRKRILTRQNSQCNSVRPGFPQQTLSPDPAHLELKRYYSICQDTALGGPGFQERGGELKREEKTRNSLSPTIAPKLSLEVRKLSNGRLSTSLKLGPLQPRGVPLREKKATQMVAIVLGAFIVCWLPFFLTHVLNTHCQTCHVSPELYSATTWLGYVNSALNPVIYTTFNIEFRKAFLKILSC
T1 sequence (Q9H3N8+P04899 fused): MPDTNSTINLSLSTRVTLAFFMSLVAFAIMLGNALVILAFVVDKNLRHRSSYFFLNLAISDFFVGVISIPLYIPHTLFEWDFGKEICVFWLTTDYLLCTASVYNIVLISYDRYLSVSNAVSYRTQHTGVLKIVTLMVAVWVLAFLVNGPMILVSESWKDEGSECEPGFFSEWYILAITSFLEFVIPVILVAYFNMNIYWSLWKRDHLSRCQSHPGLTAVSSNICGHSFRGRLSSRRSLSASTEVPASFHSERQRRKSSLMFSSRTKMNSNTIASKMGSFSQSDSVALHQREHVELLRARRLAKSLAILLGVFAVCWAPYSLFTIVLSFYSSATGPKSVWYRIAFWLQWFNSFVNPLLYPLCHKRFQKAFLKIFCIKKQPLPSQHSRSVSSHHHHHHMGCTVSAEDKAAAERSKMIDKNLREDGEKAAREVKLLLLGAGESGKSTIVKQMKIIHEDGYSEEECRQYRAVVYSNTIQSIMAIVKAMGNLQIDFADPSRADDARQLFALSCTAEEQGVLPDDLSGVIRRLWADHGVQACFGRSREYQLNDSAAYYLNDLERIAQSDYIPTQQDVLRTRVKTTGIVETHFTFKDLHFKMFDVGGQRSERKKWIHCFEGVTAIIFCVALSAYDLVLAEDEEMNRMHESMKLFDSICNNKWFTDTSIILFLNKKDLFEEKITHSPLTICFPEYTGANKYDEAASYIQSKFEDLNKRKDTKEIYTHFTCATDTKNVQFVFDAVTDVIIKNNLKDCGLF
T2 sequence (P35367 whole entry): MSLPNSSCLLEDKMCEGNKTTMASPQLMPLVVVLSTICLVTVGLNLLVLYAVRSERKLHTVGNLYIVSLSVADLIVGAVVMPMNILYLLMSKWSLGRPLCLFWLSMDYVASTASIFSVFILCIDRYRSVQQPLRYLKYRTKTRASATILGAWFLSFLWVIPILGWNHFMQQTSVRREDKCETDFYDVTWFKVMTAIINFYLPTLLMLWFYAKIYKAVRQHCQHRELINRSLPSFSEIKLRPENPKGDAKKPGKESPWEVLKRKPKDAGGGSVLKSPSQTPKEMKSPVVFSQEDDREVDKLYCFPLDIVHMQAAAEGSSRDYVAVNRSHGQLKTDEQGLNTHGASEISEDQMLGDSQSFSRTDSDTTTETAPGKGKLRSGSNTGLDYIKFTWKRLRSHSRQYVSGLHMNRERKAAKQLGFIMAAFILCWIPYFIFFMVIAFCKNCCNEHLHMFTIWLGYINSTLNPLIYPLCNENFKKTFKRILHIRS
T6 sequence (P21728 whole entry): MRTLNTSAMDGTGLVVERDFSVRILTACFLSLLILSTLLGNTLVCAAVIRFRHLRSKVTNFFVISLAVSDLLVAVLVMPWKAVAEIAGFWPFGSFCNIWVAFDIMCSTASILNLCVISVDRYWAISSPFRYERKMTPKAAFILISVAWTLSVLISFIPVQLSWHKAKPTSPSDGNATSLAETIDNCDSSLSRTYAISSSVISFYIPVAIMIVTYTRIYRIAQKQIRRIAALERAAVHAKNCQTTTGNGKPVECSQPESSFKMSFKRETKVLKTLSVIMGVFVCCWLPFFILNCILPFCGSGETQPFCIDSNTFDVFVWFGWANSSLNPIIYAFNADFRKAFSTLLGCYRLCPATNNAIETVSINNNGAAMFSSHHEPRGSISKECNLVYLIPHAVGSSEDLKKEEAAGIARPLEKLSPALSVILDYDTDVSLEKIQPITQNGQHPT
T3 sequence (P28223 whole entry): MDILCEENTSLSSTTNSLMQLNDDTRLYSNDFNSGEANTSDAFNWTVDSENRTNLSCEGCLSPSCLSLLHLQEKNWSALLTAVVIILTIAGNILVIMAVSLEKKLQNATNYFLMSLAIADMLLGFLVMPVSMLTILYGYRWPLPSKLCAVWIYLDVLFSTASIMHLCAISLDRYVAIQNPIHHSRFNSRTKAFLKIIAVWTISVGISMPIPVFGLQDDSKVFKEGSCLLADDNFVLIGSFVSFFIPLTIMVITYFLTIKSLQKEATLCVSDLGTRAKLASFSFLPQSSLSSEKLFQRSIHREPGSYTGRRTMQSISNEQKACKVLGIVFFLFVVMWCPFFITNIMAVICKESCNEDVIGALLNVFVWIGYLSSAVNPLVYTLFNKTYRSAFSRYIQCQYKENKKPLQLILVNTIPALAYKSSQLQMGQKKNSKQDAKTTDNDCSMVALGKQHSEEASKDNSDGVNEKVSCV
T4 sequence (P14416 whole entry): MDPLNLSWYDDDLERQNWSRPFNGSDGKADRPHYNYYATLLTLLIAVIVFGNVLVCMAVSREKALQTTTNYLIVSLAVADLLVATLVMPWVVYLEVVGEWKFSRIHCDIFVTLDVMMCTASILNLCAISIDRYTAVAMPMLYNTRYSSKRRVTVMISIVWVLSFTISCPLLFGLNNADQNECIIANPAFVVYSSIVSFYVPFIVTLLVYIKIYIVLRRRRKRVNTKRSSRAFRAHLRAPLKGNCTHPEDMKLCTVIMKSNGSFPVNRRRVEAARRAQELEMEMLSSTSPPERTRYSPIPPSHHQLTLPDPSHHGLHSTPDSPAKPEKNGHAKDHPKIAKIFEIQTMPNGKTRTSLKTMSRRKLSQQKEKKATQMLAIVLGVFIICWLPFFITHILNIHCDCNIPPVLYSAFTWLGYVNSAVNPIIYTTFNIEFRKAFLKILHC

| Structure (SMILES) | inhibition at 10 µM, D3R (D3R) | Ki (hH4R) [nM] | Ki (hH1R) [nM] | Ki [1] [nM] | Ki (human D2L) [nM] | Ki [2] | Ki (hD1R) [nM] | Ki (hD3R) [nM] |
| --- | --- | --- | --- | --- | --- | --- | --- | --- |
| CC(C)COc1ccc(CNC(=O)N(Cc2ccc(F)cc2)C2CCN(C)CC2)cc1 [Pimavanserin, reference compound] | inhibition at 10 µM: 60% ^a | – | – | – | – | – | – | – |
| CN1CCC(N(Cc2ccc(F)cc2)C(=O)NCc2ccc(OCCCN3CCCCC3)cc2)CC1 [ST-2300, 1-(4-Fluorobenzyl)-1-(1-methylpiperidin-4-yl)-3-{4-[3-(piperidin-1-yl)propoxy]benzyl}urea] | – | > 1000 | > 5000 | 1300 ± 331 | > 10000 | 14 nM and 14.4 nM | > 10000 | > 10000 |
